Laboratory results: patent publication US20160038651A1, “COMPOUNDS AND COMPOSITIONS FOR DRUG RELEASE” (INTERFACE BIOLOGICS, INC., priority 2013, published 2016)
≈ marks a conversion by molar mass, not a printed value. Where two headings read alike, the source gives them in different places.

Tests used:
S. aureus (ATCC 25923) [1] = test: MIC & MBC determination, standard broth microdilution method; assay type: cell-based; details: for antimicrobial activity: broth microdilution, up to the highest concentration tested; for effect of the combination on the activity of CHX-A: tested in combination with CHX-A
Description: The antimicrobial efficacy of Compound 2 and drug released from Compound 2 was investigated using a standard broth microdilution method. The minimum inhibitory concentration (MIC) and minimum bactericidal concentration (MBC) were investigated for Compound 2, drug released from Compound 2, triethylene glycol (TEG), Ciprofloxacin hydrochloride (Cipro®HCl), chlorhexidine diacetate (CHX-A), and Compound 2+CHX-A. The MIC is defined as the lowest concentration of an antimicrobial agent that will inhibit visible growth of a microorganism after overnight incubation. The MBC is defined as the lowest concentration of an antimicrobial agent required to kill 99.9% of a microorganism population. This study was carried out using two gram positive bacteria, E. faecalis (ATCC 29212) and S. aureus (ATCC 25923), and two gram negative bacteria, E. coli (ATCC 25922) and P. aeruginosa (ATCC 27853). The test samples were prepared using 2-fold dilutions per well and covered a concentration range at least 2 dilutions above and 2 dilutions below literature MIC values for the microorganisms tested.
The antimicrobial efficacy of Compound 3 and drug released from Compound 3 investigated using a standard broth microdilution method. The MIC and MBC were investigated for Compound 3, drug released from Compound 3, TEG, Cipro®HCl, CHX-A, and Compound 3+CHX-A. This study was carried out using two gram positive bacteria, E. faecalis (ATCC 29212) and S. aureus (ATCC 25923), and two gram negative bacteria, E. coli (ATCC 25922) and P. aeruginosa (ATCC 27853). The test samples were prepared using 2-fold dilutions per well and covered a concentration range at least 2 dilutions above and 2 dilutions below literature MIC values for the microorganisms tested.

[2] = Drug release in solution (PBS pH 7.4, 37° C., RP-HPLC); assay type: physicochemical; details: 0.1 mg/ml in PBS pH 7.4, 37° C.
Protocol: Compound 2 was dissolved in PBS (pH 7.4) at 0.1 mg/ml and placed in incubator at 37° C. At each time point (0, 1, 3, 7, 14, 21, & 28 days), solution was removed from incubator and analyzed for the drug by RP-HPLC using established protocols (FIG. 6). […] The release profile of compound 2 was also evaluated in a device prototype assembly using bovine serum, blood (porcine) or a gel matrix.
Compound 3 was dissolved in PBS (pH 7.4) at 0.1 mg/ml and placed in incubator at 37° C. At each time point (0, 1, 3, 7, 14, 21, & 28 days), solution was removed from incubator and analyzed for drug by RP-HPLC using established protocols.

New Zealand rabbits = test: Intracutaneous Reactivity, ISO 10993-10: 2010; assay type: in vivo; details: 0.2 mL intracutaneous injections, scored after 24, 48, 72 h
Protocol: (§1) Compound 2 was dissolved in PBS (9.2×10 mg/mL) and tested for Intracutaneous Reactivity in accordance with ISO 10993-10: 2010 Standard, Biological Evaluation of Medical Devices, Part 10: Tests for Irritation and Skin Sensitization, Pages 11-14. Each rabbit received five sequential 0.2 mL intracutaneous injections along either side of the dorsal mid-line with the test article on one side and the control on the other. Three New Zealand rabbits were used per sample and control. The injection sites were observed and scored for erythema (redness) and edema (swelling) after 24, 48, and 72 h on a scale of 1 to 4.
as §1, with “Compound 3” for “Compound 2”, “PBS (5.4×10^−2” for “PBS (9.2×10”

mice = test: Acute Systemic Toxicity following ISO 10993-11; assay type: in vivo; details: single injection 50 mL/kg per mouse, observed to 72 h
Protocol: A single injection dose of 50 mL/kg per mouse (˜1 mL) was administered to 5 mice per test sample.

S. aureus (ATCC 25923) [3] = details: cited from earlier work
[4] = Accelerated drug release in acidic, basic or neutral conditions (RP-HPLC); assay type: physicochemical; details: 37° C.
Protocol: Compound 2 was prepared at 10 mg/ml in 0.1 N HCl (final pH ˜4), 0.1 N NaOH (final pH ˜10), and PBS (final pH ˜7). Samples were incubated at 37° C. in acidic, basic, or neutral conditions. At each time point, the drug concentration was quantified by RP-HPLC.

Row | Compound | MIC Experimental (S. aureus (ATCC 25923) [1]; S. aureus, Table 5, in µg/mL) | MBC Experimental (S. aureus (ATCC 25923) [1]; S. aureus, Table 5) [µg/mL] | antimicrobial activity (S. aureus (ATCC 25923) [1]) | effect of the combination on the activity of CHX-A (S. aureus (ATCC 25923) [1]) | MBC Literature (S. aureus (ATCC 25923) [3]; Table 4) [µg/mL] | MIC Literature (S. aureus (ATCC 25923) [3]; Table 4) [µg/mL] | MBC Literature (S. aureus (ATCC 25923) [3]; Table 5) [µg/mL] | MIC Literature (S. aureus (ATCC 25923) [3]; Table 5) [µg/mL] | MBC Experimental (S. aureus (ATCC 25923) [1]; S. aureus, Table 4) [µg/mL] | MIC Experimental (S. aureus (ATCC 25923) [1]; S. aureus, Table 4) [µg/mL] | also measured
1 | O=C(O)c1cn(C2CC2)c2cc(N3CCNCC3)c(F)cc2c1=O [Cipro Released from Compound 3] | 0.5 | 1 (≈ 3.02 µM) | antimicrobial activity consistent with both the Cipro®HCl controls and literature values |  |  |  |  |  |  |  | 
2 | O=C(OCCOCCOCCO)c1cn(C2CC2)c2cc(N3CCNCC3)c(F)cc2c1=O [Compound 3] | >55.5 | >55.5 | did not show any antimicrobial activity | did not affect the activity of CHX-A |  |  |  |  |  |  | drug concentration with time (drug release) ([2]; out to at least 28 days): linear increase; irritation (erythema and edema, Intracutaneous Reactivity) (New Zealand rabbits; in PBS 5.4×10^−2 mg/mL): non-irritant; signs of toxicity (Acute Systemic Toxicity) (mice; in PBS 8×10^−4-8×10^−2 mg/mL, all concentrations): no signs of toxicity
3 | Ciprofloxacin hydrochloride [Cipro*HCl] | 0.25-0.5 | 0.5 to 1 |  |  | 0.9 | 0.5 | 0.9 | 0.5 | 0.5 to 1 | 0.25 to 0.5 | 
4 | O=C(OCCOCCOCCOC(=O)c1cn(C2CC2)c2cc(N3CCNCC3)c(F)cc2c1=O)c1cn(C2CC2)c2cc(N3CCNCC3)c(F)cc2c1=O [Compound 2] |  |  | did not show any antimicrobial activity | did not affect the activity of CHX-A |  |  |  |  | >78 | >78 | total drug released ([2]; after 28 days): ~8%; irritation (erythema and edema, Intracutaneous Reactivity) (New Zealand rabbits; in PBS 9.2×10 mg/mL): non-irritant; drug release ([4]; 10 mg/ml in 0.1 N HCl (final pH ~4), after 7 days): ~71%; drug release ([4]; 10 mg/ml in 0.1 N NaOH (final pH ~10), in less than 1 day): 100%; drug release ([4]; 10 mg/ml in PBS (final pH ~7), after 7 days): ~2%; signs of toxicity (Acute Systemic Toxicity) (mice; in PBS 4×10^−5-9.7×10^−1 mg/mL, higher dosage): no signs of toxicity

Continued, in another order:

Row | MIC Experimental (S. aureus (ATCC 25923) [1]; S. aureus, Table 5, in µg/mL) | Compound | MBC Experimental (S. aureus (ATCC 25923) [1]; S. aureus, Table 5) [µg/mL] | antimicrobial activity (S. aureus (ATCC 25923) [1]) | effect of the combination on the activity of CHX-A (S. aureus (ATCC 25923) [1]) | MBC Literature (S. aureus (ATCC 25923) [3]; Table 4) [µg/mL] | MIC Literature (S. aureus (ATCC 25923) [3]; Table 4) [µg/mL] | MBC Literature (S. aureus (ATCC 25923) [3]; Table 5) [µg/mL] | MIC Literature (S. aureus (ATCC 25923) [3]; Table 5) [µg/mL] | MBC Experimental (S. aureus (ATCC 25923) [1]; S. aureus, Table 4) [µg/mL] | MIC Experimental (S. aureus (ATCC 25923) [1]; S. aureus, Table 4) [µg/mL] | also measured
5 | >100 | OCCOCCOCCO [TEG, triethylene glycol] | >100 | No antimicrobial activity |  |  |  |  |  |  |  | MBC (S. aureus (ATCC 25923) [1]; Staphylococcus aureus, ATCC25923, S. aureus, Table 4, read-out: MBC Experimental): > 100 µg/mL; MIC (S. aureus (ATCC 25923) [1]; Staphylococcus aureus, ATCC25923, S. aureus, Table 4, read-out: MIC Experimental): > 100 µg/mL
6 | 1 | CC(=O)O.CC(=O)O.NC(=N\CCCCCC/N=C(N)/N=C(\N)Nc1ccc(Cl)cc1)/N=C(\N)Nc1ccc(Cl)cc1 [CHX-A, chlorhexidine diacetate] | 1 to 4 |  |  | 3.9 | 0.9 | 3.9 | 0.9 | 1 to 4 | 1 | 
